Data as given in publication PMC2748937 (Nature structural & molecular biology, 2009).

Tests used:
Grb14 RA-PH K252A = molecular target: T1, Grb14 RA-PH K252A (Homo sapiens, UniProt Q14449, K252A); assay: Fluorescence-polarization phosphoinositide binding, Grb14 RA-PH K252A; details: Grb14 K252A vs WT
T1 sequence (Q14449 106-356 K252A limits assumed): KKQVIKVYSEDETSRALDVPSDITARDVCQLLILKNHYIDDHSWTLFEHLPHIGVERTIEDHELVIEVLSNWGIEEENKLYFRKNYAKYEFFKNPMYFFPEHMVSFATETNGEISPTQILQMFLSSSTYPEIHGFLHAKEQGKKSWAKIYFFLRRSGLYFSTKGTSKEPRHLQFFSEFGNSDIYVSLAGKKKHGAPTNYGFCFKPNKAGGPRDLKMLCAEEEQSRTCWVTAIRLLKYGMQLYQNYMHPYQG

[1] = system: Grb14 recruitment to the insulin receptor; assay type: cell-based; details: co-immunoprecipitation, data not shown
crystal structure = molecular target: the molecule itself; assay: crystal structure

## CCCCCC(=O)O[C@H](COC(=O)CCCCCNC(=O)CCC1=C(C)C2=Cc3ccc(-c4ccc(OC)cc4)n3[B-](F)(F)[N+]2=C1C)COP(=O)(O)O[C@H]1[C@H](O)[C@@H](OP(=O)(O)O)[C@H](OP(=O)(O)O)[C@@H](OP(=O)(O)O)[C@H]1O [345P3, PI(3,4,5)P3]
Grb14 RA-PH K252A
  decrease in binding affinity relative to wild-type: more than three

## COC[C@H]1OC(=O)c2coc3c2[C@@]1(C)C1=C(C3=O)[C@@H]2CCC(=O)[C@@]2(C)C[C@H]1OC(C)=O [wortmannin]
[1]
  effect on recruitment of Grb14 to the insulin receptor: PI-3K activity is not required for Grb14 recruitment to the receptor

B1: Grb10 RA-PH (residues 106-357 of human Grb10 isoform c (domain or fragment)
chain: GSHMAAAKQDVKVFSEDGTSKVVEILADMTARDLCQLLVYKSHSVDDNSWTLVEHHPHLGLERCLEDHELVVQVESTMASESKFLFRKNYAKYEFFKNPMNFFPEQMVTWSQQSNGSQTQLLQNFLNSSSSPEIQGFLHVKELGKKSWKKLYVCLRRSGLYCSTKGTSAAPRHLQLLADLEDSNIFSLIAGRKQYNAPTDHGLCIKPNKVRNETKELRLLCAEDEQTRTSWMTAFRLLKYGMLLYQNYRIPQQRKA
Crystal structure
  binding result: binds
